According to US20240210412A1, “SULFONYL-TRIAZOLE COMPOUNDS USEFUL AS LIGANDS AND INHIBITORS OF PROSTAGLANDIN REDUCTASE 2” (University of Virginia Patent Foundation, priority 2021, published 2024):

Tests used:
Test in all cases: SILAC LC-MS ABPP
Assay type in all cases: cell-based
Conditions in all cases: 25 μM 2 h, live DM93 cells
Q13011 = target: T1, Q13011 (Homo sapiens, UniProt Q13011)
T1 construct: performing SuTEx compound screening directly in cells; endogenous in cells; host or cells: DM93 cells (SILAC)
Procedure, shortened: (§1)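 Ligand engagement is measured as loss of HHS-475 probe labelling at specific tyrosines. SILAC DM93 melanoma cells were treated in situ (25 μM ligand vs DMSO, 2 h, 37 °C; then 100 μM probe, 2 h), and modified peptides were quantified by high-resolution LC-MS/MS after desthiobiotin tagging and avidin capture.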

Q9UMX5 = target: T2, Q9UMX5 (Homo sapiens, UniProt Q9UMX5)
T2 construct: endogenous in cells; host or cells: DM93 cells (SILAC)
Procedure, shortened: as §1

O95757 = target: T3, O95757 (Homo sapiens, UniProt O95757)
T3 construct: endogenous in cells; host or cells: DM93 cells (SILAC)
Procedure, shortened: as §1

P53621 = target: T4, P53621 (Homo sapiens, UniProt P53621)
T4 construct: endogenous in cells; host or cells: DM93 cells (SILAC)
Procedure, shortened: as §1

Q15293 = target: T5, Q15293 (Homo sapiens, UniProt Q15293)
T5 construct: performing SuTEx compound screening directly in cells; endogenous in cells; host or cells: DM93 cells (SILAC), soluble fraction
Procedure, shortened: as §1

Q969T7 = target: T6, Q969T7 (Homo sapiens, UniProt Q969T7)
T6 construct: endogenous in cells; host or cells: DM93 cells (SILAC), live-cell treatment
Procedure, shortened: as §1

P53992 = target: T7, P53992 (Homo sapiens, UniProt P53992)
T7 construct: endogenous in cells; host or cells: DM93 cells (SILAC)
Procedure, shortened: as §1

Q06203 = target: T8, Q06203 (Homo sapiens, UniProt Q06203)
T8 construct: performing SuTEx compound screening directly in cells; endogenous in cells; host or cells: DM93 cells (SILAC)
Procedure, shortened: as §1

Q12874 = target: T9, Q12874 (Homo sapiens, UniProt Q12874)
T9 construct: performing SuTEx compound screening directly in cells; endogenous in cells; host or cells: DM93 cells (SILAC)
Procedure, shortened: as §1

Q9NZQ3 = target: T10, Q9NZQ3 (Homo sapiens, UniProt Q9NZQ3)
T10 construct: endogenous in cells; host or cells: DM93 cells (SILAC)
Procedure, shortened: as §1

Q9UQ35 = target: T11, Q9UQ35 (Homo sapiens, UniProt Q9UQ35)
T11 construct: endogenous in cells; host or cells: DM93 cells (SILAC)
Procedure, shortened: as §1

O75351 = target: T12, O75351 (Homo sapiens, UniProt O75351)
T12 construct: endogenous in cells; host or cells: DM93
Procedure, shortened: as §1

P20839 = target: T13, P20839 (Homo sapiens, UniProt P20839)
T13 construct: endogenous in cells; host or cells: DM93 (SILAC)
Procedure, shortened: as §1

Q5T6F2 = target: T14, Q5T6F2 (Homo sapiens, UniProt Q5T6F2)
T14 construct: performing SuTEx compound screening directly in cells; endogenous in cells; host or cells: DM93 cells (SILAC), soluble fraction
Procedure, shortened: as §1

Q8IWS0 = target: T15, Q8IWS0 (Homo sapiens, UniProt Q8IWS0)
T15 construct: endogenous in cells; host or cells: DM93 cells (SILAC), live-cell treatment
Procedure, shortened: as §1

Q9H3P7 = target: T16, Q9H3P7 (Homo sapiens, UniProt Q9H3P7)
T16 construct: endogenous in cells; host or cells: DM93 cells (SILAC), treated live; soluble proteome analysed
Procedure, shortened: as §1

Q9NUJ1 = target: T17, Q9NUJ1 (Homo sapiens, UniProt Q9NUJ1)
T17 construct: endogenous in cells; host or cells: DM93 cells (SILAC), treated live; soluble proteome analysed
Procedure, shortened: as §1

Q9UFN0 = target: T18, Q9UFN0 (Homo sapiens, UniProt Q9UFN0)
T18 construct: endogenous in cells; host or cells: DM93 cells (SILAC)
Procedure, shortened: as §1

T14 sequence (Q5T6F2 whole entry): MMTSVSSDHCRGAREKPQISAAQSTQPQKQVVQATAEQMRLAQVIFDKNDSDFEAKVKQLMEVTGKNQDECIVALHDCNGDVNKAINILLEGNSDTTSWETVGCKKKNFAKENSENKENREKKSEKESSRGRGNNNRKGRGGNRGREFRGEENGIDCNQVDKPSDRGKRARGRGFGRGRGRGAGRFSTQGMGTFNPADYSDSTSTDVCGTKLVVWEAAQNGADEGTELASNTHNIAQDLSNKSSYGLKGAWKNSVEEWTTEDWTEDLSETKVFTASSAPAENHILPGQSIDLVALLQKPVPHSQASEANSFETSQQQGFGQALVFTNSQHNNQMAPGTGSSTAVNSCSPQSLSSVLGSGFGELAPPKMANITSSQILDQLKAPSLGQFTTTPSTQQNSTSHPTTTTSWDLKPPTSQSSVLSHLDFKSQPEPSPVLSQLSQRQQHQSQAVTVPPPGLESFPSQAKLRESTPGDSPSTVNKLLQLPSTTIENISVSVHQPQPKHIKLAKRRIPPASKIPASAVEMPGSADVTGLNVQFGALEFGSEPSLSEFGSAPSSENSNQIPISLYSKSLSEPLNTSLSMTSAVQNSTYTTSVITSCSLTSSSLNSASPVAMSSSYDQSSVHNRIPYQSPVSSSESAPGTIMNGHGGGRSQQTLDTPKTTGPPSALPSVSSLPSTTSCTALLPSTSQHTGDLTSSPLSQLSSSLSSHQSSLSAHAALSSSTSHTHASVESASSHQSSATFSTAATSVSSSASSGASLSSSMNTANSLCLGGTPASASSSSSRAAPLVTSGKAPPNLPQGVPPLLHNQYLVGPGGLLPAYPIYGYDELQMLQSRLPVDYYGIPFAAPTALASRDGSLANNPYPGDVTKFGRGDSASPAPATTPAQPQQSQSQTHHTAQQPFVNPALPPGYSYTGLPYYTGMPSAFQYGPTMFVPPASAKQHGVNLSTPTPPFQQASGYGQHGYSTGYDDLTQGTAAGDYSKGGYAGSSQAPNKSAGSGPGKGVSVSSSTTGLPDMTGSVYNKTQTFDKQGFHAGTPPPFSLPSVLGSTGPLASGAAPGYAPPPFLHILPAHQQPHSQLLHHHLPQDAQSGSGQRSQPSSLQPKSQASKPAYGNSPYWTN
T15 sequence (Q8IWS0 whole entry): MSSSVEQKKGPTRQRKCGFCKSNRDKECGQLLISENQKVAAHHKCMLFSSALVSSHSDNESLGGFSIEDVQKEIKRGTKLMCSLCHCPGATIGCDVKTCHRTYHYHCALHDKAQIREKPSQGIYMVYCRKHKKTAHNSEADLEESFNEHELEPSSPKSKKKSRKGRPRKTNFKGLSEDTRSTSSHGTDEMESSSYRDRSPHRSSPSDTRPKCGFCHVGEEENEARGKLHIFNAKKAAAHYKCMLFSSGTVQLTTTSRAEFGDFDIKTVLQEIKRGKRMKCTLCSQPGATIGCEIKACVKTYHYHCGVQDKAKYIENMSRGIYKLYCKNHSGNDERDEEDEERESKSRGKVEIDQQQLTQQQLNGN
T12 sequence (O75351 whole entry): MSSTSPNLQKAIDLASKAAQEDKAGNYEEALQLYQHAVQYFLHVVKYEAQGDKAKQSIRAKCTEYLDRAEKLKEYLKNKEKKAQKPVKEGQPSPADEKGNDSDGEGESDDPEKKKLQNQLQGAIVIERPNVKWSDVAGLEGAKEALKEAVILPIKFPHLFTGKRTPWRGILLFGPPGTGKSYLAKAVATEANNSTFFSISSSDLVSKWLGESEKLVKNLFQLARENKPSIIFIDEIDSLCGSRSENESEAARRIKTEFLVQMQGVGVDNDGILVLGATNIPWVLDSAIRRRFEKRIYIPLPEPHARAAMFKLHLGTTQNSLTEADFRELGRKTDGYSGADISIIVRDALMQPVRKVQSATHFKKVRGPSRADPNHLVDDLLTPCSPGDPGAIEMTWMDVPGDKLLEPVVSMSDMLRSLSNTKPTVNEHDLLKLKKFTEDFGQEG
T2 sequence (Q9UMX5 32-172): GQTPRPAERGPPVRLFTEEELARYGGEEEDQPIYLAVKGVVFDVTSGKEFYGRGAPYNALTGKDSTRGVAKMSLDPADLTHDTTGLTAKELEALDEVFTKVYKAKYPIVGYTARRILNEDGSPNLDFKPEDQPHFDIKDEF
T16 sequence (Q9H3P7 whole entry): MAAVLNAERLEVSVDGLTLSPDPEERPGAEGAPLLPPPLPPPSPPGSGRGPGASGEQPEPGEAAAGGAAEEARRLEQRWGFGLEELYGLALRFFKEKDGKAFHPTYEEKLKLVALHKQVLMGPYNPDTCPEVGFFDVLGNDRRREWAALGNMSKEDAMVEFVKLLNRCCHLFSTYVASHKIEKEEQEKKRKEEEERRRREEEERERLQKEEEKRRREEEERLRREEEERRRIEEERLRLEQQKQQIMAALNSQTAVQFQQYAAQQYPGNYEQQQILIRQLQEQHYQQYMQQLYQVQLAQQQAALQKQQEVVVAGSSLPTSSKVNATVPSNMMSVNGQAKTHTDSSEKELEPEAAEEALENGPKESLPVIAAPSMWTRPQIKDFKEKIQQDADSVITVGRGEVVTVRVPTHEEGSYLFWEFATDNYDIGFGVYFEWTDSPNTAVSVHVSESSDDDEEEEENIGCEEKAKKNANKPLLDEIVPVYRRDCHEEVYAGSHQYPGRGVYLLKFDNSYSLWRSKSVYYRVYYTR
T18 sequence (Q9UFN0 whole entry): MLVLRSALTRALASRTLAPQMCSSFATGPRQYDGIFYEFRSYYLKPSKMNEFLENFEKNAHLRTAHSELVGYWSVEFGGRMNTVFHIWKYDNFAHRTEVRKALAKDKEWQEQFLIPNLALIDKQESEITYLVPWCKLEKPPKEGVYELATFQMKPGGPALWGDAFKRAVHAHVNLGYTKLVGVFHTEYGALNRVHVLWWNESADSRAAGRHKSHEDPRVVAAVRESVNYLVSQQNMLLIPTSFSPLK
T6 sequence (Q969T7 whole entry): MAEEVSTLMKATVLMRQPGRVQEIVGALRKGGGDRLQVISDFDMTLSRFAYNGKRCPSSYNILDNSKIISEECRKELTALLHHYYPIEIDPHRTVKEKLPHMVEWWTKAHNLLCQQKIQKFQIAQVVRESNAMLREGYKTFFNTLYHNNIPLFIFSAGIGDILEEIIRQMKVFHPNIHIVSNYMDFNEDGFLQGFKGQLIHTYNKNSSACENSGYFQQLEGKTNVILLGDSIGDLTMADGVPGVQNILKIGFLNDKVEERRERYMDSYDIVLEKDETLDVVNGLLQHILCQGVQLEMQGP
T3 sequence (O95757 whole entry): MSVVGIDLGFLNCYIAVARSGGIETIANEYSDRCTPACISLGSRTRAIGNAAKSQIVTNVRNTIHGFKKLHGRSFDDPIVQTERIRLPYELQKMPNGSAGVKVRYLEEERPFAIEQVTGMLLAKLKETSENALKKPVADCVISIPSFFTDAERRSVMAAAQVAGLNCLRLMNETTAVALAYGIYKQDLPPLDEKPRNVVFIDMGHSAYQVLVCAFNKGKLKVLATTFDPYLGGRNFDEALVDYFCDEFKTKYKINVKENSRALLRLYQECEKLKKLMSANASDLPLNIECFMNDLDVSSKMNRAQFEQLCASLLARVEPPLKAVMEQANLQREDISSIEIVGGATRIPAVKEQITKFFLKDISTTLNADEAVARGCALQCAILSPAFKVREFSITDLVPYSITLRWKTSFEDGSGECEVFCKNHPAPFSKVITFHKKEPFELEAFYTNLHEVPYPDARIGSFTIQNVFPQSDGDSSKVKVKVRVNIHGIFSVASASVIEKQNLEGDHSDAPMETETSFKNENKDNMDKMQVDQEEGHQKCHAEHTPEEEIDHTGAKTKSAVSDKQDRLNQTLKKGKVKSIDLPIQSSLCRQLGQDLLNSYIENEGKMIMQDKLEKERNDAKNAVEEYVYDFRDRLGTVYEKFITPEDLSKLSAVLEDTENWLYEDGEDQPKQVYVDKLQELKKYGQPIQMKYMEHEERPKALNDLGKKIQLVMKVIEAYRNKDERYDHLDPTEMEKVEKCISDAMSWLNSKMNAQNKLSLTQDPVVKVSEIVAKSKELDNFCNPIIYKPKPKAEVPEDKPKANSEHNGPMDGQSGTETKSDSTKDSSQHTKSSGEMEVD
T13 sequence (P20839 2-514 limits assumed): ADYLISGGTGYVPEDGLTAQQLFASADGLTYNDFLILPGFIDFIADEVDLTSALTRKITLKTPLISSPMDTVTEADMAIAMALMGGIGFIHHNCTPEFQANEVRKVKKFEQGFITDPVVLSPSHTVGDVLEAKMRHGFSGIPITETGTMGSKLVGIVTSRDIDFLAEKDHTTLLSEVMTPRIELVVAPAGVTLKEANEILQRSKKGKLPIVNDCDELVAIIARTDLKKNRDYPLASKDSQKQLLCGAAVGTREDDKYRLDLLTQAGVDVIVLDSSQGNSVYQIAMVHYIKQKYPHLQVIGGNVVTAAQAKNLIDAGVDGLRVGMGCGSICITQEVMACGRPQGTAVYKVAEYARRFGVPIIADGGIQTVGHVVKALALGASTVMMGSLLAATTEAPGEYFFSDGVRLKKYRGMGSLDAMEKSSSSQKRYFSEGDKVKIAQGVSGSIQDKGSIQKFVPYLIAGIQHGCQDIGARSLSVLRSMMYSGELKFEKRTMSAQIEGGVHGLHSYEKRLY
T17 sequence (Q9NUJ1 53-306): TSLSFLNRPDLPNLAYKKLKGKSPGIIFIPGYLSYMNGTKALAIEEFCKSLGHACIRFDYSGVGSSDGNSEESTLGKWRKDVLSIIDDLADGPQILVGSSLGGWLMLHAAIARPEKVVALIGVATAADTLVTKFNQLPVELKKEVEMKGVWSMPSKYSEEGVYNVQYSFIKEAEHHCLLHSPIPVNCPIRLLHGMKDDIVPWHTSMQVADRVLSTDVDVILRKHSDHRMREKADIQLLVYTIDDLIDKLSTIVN

## O=C(c1ccc(S(=O)(=O)n2cncn2)cc1)N1CCC(c2ccccc2)CC1 [HHS-0701, (4-((1H-1,2,4-triazol-1-yl)sulfonyl)phenyl)(4-phenylpiperidin-1-yl)methanone]
Q13011
  liganded tyrosine site 149: HHS0701.Y (tyrosine sites that showed >80% reductions (SR >5) in probe labeling in cells treated with compounds (liganded sites))
Q9UMX5
  liganded tyrosine site 82: HHS0701.Y (tyrosine sites that showed >80% reductions (SR >5) in probe labeling in cells treated with compounds (liganded sites))

## O=C(NC1CC1)c1ccc(S(=O)(=O)n2cncn2)cc1 [HHS-0101, 4-((1H-1,2,4-triazol-1-yl)sulfonyl)-N-cyclopropylbenzamide]
O95757
  liganded tyrosine site 639: HHS0101.Y|HHS0301.Y|HHS0401.Y (tyrosine sites that showed >80% reductions (SR >5) in probe labeling in cells treated with compounds (liganded sites))
P53621
  liganded tyrosine site 628: HHS0101.Y|HHS0401.Y|HHS0701.Y (tyrosine sites that showed >80% reductions (SR >5) in probe labeling in cells treated with compounds (liganded sites))
Q15293
  liganded tyrosine site 320: HHS0101.Y (tyrosine sites that showed >80% reductions (SR >5) in probe labeling in cells treated with compounds (liganded sites))
Q969T7
  liganded tyrosine site 85: HHS0101.Y (tyrosine sites that showed >80% reductions (SR >5) in probe labeling in cells treated with compounds (liganded sites))

## O=C(NC1CCCCC1)c1ccc(S(=O)(=O)n2cncn2)cc1 [HHS-0301, 4-((1H-1,2,4-triazol-1-yl)sulfonyl)-N-cyclohexylbenzamide]
P53992
  liganded tyrosine site 300: HHS0301.Y (tyrosine sites that showed >80% reductions (SR >5) in probe labeling in cells treated with compounds (liganded sites))
Q06203
  liganded tyrosine site 451: HHS0301.Y (tyrosine sites that showed >80% reductions (SR >5) in probe labeling in cells treated with compounds (liganded sites))
Q12874
  liganded tyrosine site 139: HHS0301.Y (tyrosine sites that showed >80% reductions (SR >5) in probe labeling in cells treated with compounds (liganded sites))
Q9NZQ3
  liganded tyrosine site 52: HHS0301.Y (tyrosine sites that showed >80% reductions (SR >5) in probe labeling in cells treated with compounds (liganded sites))
Q9UQ35
  liganded tyrosine site 2390: HHS0301.Y (tyrosine sites that showed >80% reductions (SR >5) in probe labeling in cells treated with compounds (liganded sites))

## O=C(NCc1ccccc1)c1ccc(S(=O)(=O)n2cncn2)cc1 [HHS-0401, 4-((1H-1,2,4-triazol-1-yl)sulfonyl)-N-benzylbenzamide]
O75351
  liganded tyrosine site 47: HHS0401.Y (tyrosine sites that showed >80% reductions (SR >5) in probe labeling in cells treated with compounds (liganded sites))
P20839
  liganded tyrosine site 233: HHS0401.Y (tyrosine sites that showed >80% reductions (SR >5) in probe labeling in cells treated with compounds (liganded sites))
Q5T6F2
  liganded tyrosine site 823: HHS0401.Y (tyrosine sites that showed >80% reductions (SR >5) in probe labeling in cells treated with compounds (liganded sites))
  liganded tyrosine site 825: HHS0401.Y (tyrosine sites that showed >80% reductions (SR >5) in probe labeling in cells treated with compounds (liganded sites))

## O=C(NCC1CC1)c1ccc(S(=O)(=O)n2cncn2)cc1 [HHS-0201, 4-((1H-1,2,4-triazol-1-yl)sulfonyl)-N-(cyclopropylmethyl)benzamide]
Q8IWS0
  liganded tyrosine site 303: HHS0201.Y (tyrosine sites that showed >80% reductions (SR >5) in probe labeling in cells treated with compounds (liganded sites))
Q9H3P7
  liganded tyrosine site 293: HHS0201.Y|HHS0301.Y (tyrosine sites that showed >80% reductions (SR >5) in probe labeling in cells treated with compounds (liganded sites))
Q9NUJ1
  liganded tyrosine site 215: HHS0201.Y|HHS0701.Y (tyrosine sites that showed >80% reductions (SR >5) in probe labeling in cells treated with compounds (liganded sites))
Q9UFN0
  liganded tyrosine site 42: HHS0201.Y|HHS0301.Y|HHS0401.Y|HHS0701.Y (tyrosine sites that showed >80% reductions (SR >5) in probe labeling in cells treated with compounds (liganded sites))
